From patent US11091515B2, “Polypeptide derived from CAP1 and pharmaceutical composition comprising same as effective ingredient” (Seoul National University Hospital, priority 2017, dated 2021)
Where no end group is shown, it is not given here.

Assays:
[1] = biological target: T1, binding of resistin and CAP1 (Homo sapiens, UniProt Q9HD89); test: In vitro pull down assay of mFc-hResistin with CAP1 from THP-1 cell lysates (western blot with CAP1 antibody); details: for inhibition of binding of resistin and CAP1: each peptide at 50 μM, mFC-hResistin 1 μg/ml
T1 construct: host or cells: CAP1: endogenous, THP-1 cell lysate
T1 sequence (Q9HD89 19-108): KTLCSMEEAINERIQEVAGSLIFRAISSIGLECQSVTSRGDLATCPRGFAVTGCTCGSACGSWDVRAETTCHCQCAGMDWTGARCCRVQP
Experimental: THP-1 cells were lysed with lysis buffer (20 mM Tris pH 7.5, 150 mM NaCl, 1% Triton X-100, 0.25% sodium deoxycholate, 1 mM EDTA, 1 Mm NaF, 1 mM Na3VO4, and, protease inhibitor cocktail) to extract proteins. mFc-hResistin (0.5 ug) protein and VS_peptide (SEQ ID NO: 2) at 10 μM, 100 μM, and 500 μM were added to the extracted THP-1 protein (500 μg), followed by incubation at 4° C. overnight. mFC beads (20 μl) were added, and the protein complexes were pulled down at 4° C. for 3 hours, and then washed three times with lysis buffer. Then, SDS-PAGE sample buffer containing β-mercaptoethanol was added, followed by boiling at 100° C. for 5 minutes, and then a supernatant was obtained through centrifugation. It was investigated by western blotting using the hCAP1 antibody and mFc-HRP antibody whether the binding of hCAP1 and mFc-hResistin was inhibited by VS_peptide. Specifically, THP-1 cell lysates were treated with 1 μg/ml of mFC-hResistin, treated with VS_peptide (SEQ ID NO: 2) at 10 μM, 100 μM, and 500 μM each, and then pulled down using Fc beads. The proteins bound to beads were separated by SDS-PAGE, and subjected to western blotting using the CAP1 antibody. THP-1 cell lysates were treated with mFC-hResistin (1 μg/ml) and each of the peptides of SEQ ID NOS: 1 to 7 at 50 μM each, and pulled down using Fc beads. Thereafter, the proteins bound to Fc beads were separated by SDS-PAGE, and then subjected to western blotting using the CAP1 antibody.

[2] = test system: AMPK (phosphorylation of AMPK and ACC, LDLR expression); test: AMPK activity by western blot in HepG2 cells treated with AICAR and resistin; type: cell-based; details: peptide 50 μM, compared with addition of only resistin
Experimental: To investigate the effect of VS_peptide (SEQ ID NO: 2) on AMPK activity, AMPK phosphorylation was compared between the addition of VS_peptide (SEQ ID NO: 2) and the addition of AA_peptide (SEQ ID NO: 3). To investigate the effect of VS_peptide (SEQ ID NO: 2) on AMPK activity, HepG2 cells were treated with AICAR to activate AMPK and treated with resistin, and the cells were treated with VS_peptide (SEQ ID NO: 2) and AA_peptide (SEQ ID NO: 3) at 50 μM each. The western blotting was performed to investigate AMPK activity in HepG2 cells through the phosphorylation of AMPK, the phosphorylation of ACC, which is a substrate of AMPK, and the expression level of LDLR.

[3] = test system: NF-κB (p65 phosphorylation); test: NF-κB activity by p65 phosphorylation western blot in resistin-treated THP-1 cells; type: cell-based, human
Experimental: To investigate the effect of VS_peptide (SEQ ID NO: 2) on NF-κB activity, p65 phosphorylation was compared between the addition of VS_peptide (SEQ ID NO: 2) and the addition of AA_peptide (SEQ ID NO: 3). THP-1 cells were treated with resistin to activate NF-κB, and VS_peptide (SEQ ID NO: 2) and AA_peptide (SEQ ID NO: 3) were added, and then western blotting using the p-p65 antibody was performed for NF-κB activity.

[4] = biological target: T2, binding of resistin and CAP1 in THP-1 cells (Homo sapiens, UniProt Q9HD89); test: Immunoprecipitation of resistin/CAP1 from treated THP-1 cells; type: cell-based; details: THP-1 cells treated with resistin and peptide for 12 hours
T2 construct: endogenous in cells; host or cells: THP-1 cells (CAP1 endogenous)
T2 sequence (Q9HD89 19-108): T1 sequence (Q9HD89 19-108)
Experimental: THP-1 cells were treated with resistin or resistin and a peptide for 12 hours, and then lysed with lysis buffer (20 mM Tris pH 7.5, 150 mM NaCl, 1% Triton X-100, 0.25% sodium deoxycholate, 1 mM EDTA, 1mM NaF, 1mM Na3VO4, and protease inhibitor cocktail). The resistin antibody or CAP1 antibody was added to the cell lysates, followed by immunoprecipitation at 4° C. for 3 hours. Mouse IgG was added for control. Protein A/G agarose beads were added to the THP-1 protein and CAP1 antibody complex, followed by incubation, and then through centrifugation, only beads were left and the supernatant was removed. Thereafter, the proteins bound to beads were separated by SDS-PAGE, and after electrophoresis, the gel was transferred onto the polyvinylidene fluoride (PVDF, Millipore), and then blocked with 5% skim milk at room temperature for 30 minutes. […] After the incubation, the membrane was sufficiently washed at least three times for 10 minutes each, and bands were detected using ECL detection kit (Invitrogen, WP20005), and then analyzed. […]

[5] = test system: MDA-MB-231 cells; test: Cell migration analysis of resistin-treated breast cancer cells; type: cell-based, human; details: MDA-MB-231, resistin 50 ng/ml, 30 μM and 50 μM, compared with AA_peptide
Experimental: MDA-MB-231 cells were suspended in DMEM medium (0.1% FBS), and then the suspension was added at a concentration of 1×10^5 cell/ml per well to uniformly spread throughout the upper chamber of 6-well Transwell. In the lower chamber, each of 50 μM VS_peptide (SEQ ID NO: 2) and AA_peptide (SEQ ID NO: 3) was mixed with DMEM medium (0.1% FBS), and resistin was added at 100 ng/ml. Thereafter, the cells were incubated in an incubator at 37° C. in 5% CO2 for 24 hours. The cells penetrating the Transwell were stained using Crystal violet staining, and then quantified using the Image J program.
MDA-MB-231 cells were suspended in DMEM medium, and then placed in 24-well plates at a concentration of 1×10^5 cell/ml per well. After 50 ng/ml of resistin was placed in each well, VS_peptide (SEQ ID NO: 2) and AA_peptide (SEQ ID NO: 3) were placed at 30 μM and 50 μM, respectively. Thereafter, the cells were incubated in an incubator at 37° C. and 5% CO2 for 6-15 hours. Thereafter, cell migration after 6 hours and 15 hours was observed using a microscope.

[6] = biological target: T3, binding of resistin and CAP1 (rhCAP1, mFc-hResistin) (Homo sapiens, UniProt Q9HD89); test: Competitive ELISA, mFc-hResistin binding to plate-coated rhCAP1
T3 sequence (Q9HD89 19-108): T1 sequence (Q9HD89 19-108)
Experimental: Each well of a 96-well plate were coated with hCAP1 protein at a concentration of 2.5 μg/ml for 12 hours (overnight) at room temperature. Each well was washed two times with phosphate buffered saline (PBS, pH7.4). Each well was blocked with a blocking buffer containing 3% BAS at room temperature for 1 hour. The blocking buffer containing 3% BSA was mixed with 5 ug/ml mFc-hResistin protein and VS_peptide [SEQ ID NO: 2] at various concentrations (10 uM, 30 uM, 100 uM), followed by pre-incubation at room temperature for 1 hour. After the blocking solution was removed from the 96-well plate, 100 μl of the pre-incubated mixture of mFc-hResistin protein and VS_peptide (SEQ ID NO: 2) was dispensed in each well, followed by incubation at room temperature for 2 hours. Upon the completion of the incubation, each well was washed two times with PBS. After the anti-mouse-Fc-HRP antibody was diluted in a blocking buffer containing 3% BSA at 1:1000, 100 μl of the diluted antibody was dispensed in each well, followed by incubation at room temperature for 1 hour. Upon the completion of the incubation, each well was washed two times with PBS. […] After 100 μl of a stop solution was dispensed in each well, and the absorbance was measured at 450 nm using an ELISA reader. […] The resistin bound to the HRP-conjugated mFc antibody was measured by ELISA at an absorbance of 450 nm.

[7] = Peptide pharmacokinetics by PET imaging of radioisotope-labeled peptide; type: in vivo, mice; details: tail vein injection, PET images at 0-48 hours
Experimental: VS_peptide and albumin-conjugated VS_peptide were injected at 36-40 μCi per mouse into the tail vein of C57BL/6 normal mice. After the injection, PET images were acquired at intervals of 0, 1, 2, 4, 24, and 48 hours using the GENISYS[…] machine from Sofie Bioscience. After the image acquisition, pharmacokinetic data were obtained by monoexponential fitting using the image analysis program Amide.
To increase drug delivery efficiency and drug effect duration of VS_peptide (SEQ ID NO: 2), albumin was bound to the peptide. VS_peptide (SEQ ID NO: 2) and albumin-conjugated VS_peptide (SEQ ID NO: 2) were labeled with a radioisotope, and then injected at 36-40 uCi each into the tail vein of male mice aged 8 weeks. PET images were acquired at intervals of 0, 1, 2, 4, 24, and 48 hours, and kinetics of the peptide in the body were observed.

Sequence	inhibition of binding of resistin and CAP1 [1]	expression level of LDLR [2]	phosphorylation of ACC [2]	phosphorylation of AMPK [2]	p65 phosphorylation induced by resistin [3]	also measured
AAAAGPPPPPVSTSSGSDES (Synthetic pro1A peptide) [Proline rich-1 region replaced with A]	inhibited the binding of resistin and CAP1 at similar levels to the VS_peptide	–	–	–	–	–
PPPPGAAAAAVSTSSGSDES (Synthetic pro2A peptide) [Proline rich-2 region replaced with A]	inhibited the binding of resistin and CAP1 at similar levels to the VS_peptide	–	–	–	–	–
AAAAGAAAAAAATSSGSDES (Synthetic AAA peptide) [Proline rich regions and VS replaced with A]	allowed the strongest binding of resistin and CAP1	–	–	–	–	–
PPPPGPPPPPAATSSGSDES (Synthetic AA peptide) [AA_peptide, VS replaced with AA; used as control peptide, reference compound]	failed to inhibit	similar	not increased	not increased	not inhibited	–
GPPPPPVSTS (Synthetic pep10 peptide) [Shortened peptide based on VS and proline rich-1]	inhibited the binding of resistin and CAP1 at similar levels to the VS_peptide	–	–	–	–	–
PPPPGPPPPPVSTSSGSDES [VS_peptide]	effectively inhibited	increased	increased	increased	inhibited	binding of resistin and CAP1 in cells (bands in IP/western blot) [4]: no bands; amount of cell migration [5]: smaller; OD value (450 nm) of resistin bound to CAP1 ([6]; addition of peptide vs non-addition, 10, 30, 100 uM, dose-dependent): decreased; inhibition at 100 µM ([6]; peptide at 100 μM, read-out: inhibitory effect on binding of resistin and CAP1): ~25%; amount of CAP1 binding to resistin ([1]; peptide at 10, 100 and 500 μM, dose-dependent): reduced; time the administered medicine remains in the body [7]: ≤ 4 h
